Patent publication US20260158017A1, “KIF18A INHIBITOR” (WIGEN BIOMEDICINE TECHNOLOGY (SHANGHAI) CO., LTD., priority 2021, published 2026)

Target: T1, Recombinant human KIF18A (1-467His-tagged) protein (Homo sapiens, UniProt Q8NI77)
T1 construct: Recombinant human KIF18A (1-467His-tagged) protein; His; made in house
Test: KIF18A enzyme assay (microtubule-stimulated ATPase activity, ADP-Glo)
Assay type: biochemical
Conditions: 30 nM KIF18A, 75 μM ATP, 30 μg/mL pig microtubules; read-out: Inhibitory activity against KIF18A IC50
Outline: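 Buffer 15 mM Tris pH 7.5, 10 mM MgCl2, 0.01% Pluronic F-68, 1 μM paclitaxel, 30 μg/mL pig microtubules; reactions at room temperature. IC50 from inhibition relative to DMSO.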

T1 sequence (Q8NI77 1-467): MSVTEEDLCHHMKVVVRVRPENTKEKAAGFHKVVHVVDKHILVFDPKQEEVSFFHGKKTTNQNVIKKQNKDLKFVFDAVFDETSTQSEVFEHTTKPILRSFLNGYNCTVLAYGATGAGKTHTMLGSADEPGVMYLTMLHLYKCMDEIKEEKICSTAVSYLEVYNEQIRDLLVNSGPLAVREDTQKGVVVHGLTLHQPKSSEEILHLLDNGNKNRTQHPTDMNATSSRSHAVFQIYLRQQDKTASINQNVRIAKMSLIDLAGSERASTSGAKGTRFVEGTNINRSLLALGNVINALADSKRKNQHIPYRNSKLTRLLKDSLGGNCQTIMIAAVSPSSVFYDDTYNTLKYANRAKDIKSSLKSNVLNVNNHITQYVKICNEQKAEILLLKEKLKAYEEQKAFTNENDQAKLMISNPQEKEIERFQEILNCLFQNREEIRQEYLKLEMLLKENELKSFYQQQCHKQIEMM
T1 sequence (P02550 whole entry partner): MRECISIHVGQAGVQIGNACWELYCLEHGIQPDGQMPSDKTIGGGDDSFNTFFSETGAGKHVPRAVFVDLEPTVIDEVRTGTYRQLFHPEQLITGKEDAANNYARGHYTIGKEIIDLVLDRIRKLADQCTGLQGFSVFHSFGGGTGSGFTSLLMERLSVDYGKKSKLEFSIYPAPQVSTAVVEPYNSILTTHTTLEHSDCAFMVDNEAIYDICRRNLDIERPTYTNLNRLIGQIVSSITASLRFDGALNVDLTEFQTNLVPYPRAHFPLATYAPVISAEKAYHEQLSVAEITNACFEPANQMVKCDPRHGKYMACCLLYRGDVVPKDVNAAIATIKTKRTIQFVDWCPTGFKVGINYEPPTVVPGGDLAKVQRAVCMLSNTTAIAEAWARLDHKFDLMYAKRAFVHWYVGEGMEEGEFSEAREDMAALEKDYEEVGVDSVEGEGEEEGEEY
T1 sequence (P02554 whole entry partner): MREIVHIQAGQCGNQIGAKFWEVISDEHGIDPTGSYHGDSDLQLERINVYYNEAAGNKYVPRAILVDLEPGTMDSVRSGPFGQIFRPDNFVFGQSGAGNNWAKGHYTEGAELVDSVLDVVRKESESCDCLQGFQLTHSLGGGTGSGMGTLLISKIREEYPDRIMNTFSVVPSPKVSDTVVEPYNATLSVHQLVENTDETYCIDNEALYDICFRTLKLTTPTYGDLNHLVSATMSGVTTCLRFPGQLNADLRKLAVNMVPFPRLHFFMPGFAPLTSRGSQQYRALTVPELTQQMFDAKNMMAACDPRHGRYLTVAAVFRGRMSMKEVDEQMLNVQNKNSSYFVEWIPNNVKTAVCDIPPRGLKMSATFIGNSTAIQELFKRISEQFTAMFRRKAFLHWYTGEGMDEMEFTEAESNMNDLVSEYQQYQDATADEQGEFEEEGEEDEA

Row | IC50 [nM] | Compound
1 | ≤ 100 | COc1ccc(NC(=O)c2cnc(NS(=O)(=O)CCO)cc2N2CCC3(CC2)CC3)nc1N1CCO[C@H](C)C1 [Compound 290]
2 | ≤ 100 | COc1ccc(NC(=O)c2cnc(NS(=O)(=O)CCO)cc2N2CCC3(CC2)CC3)nc1N1CCO[C@@H](C)C1 [Compound 291]
3 | ≤ 100 | COc1ccc(NC(=O)c2cnc(NS(=O)(=O)CCO)cc2N2CCC3(CC2)CC3)nc1N1CC(F)(F)C1 [Compound 292]
4 | ≤ 100 | COc1ccc(NC(=O)c2cnc(NS(=O)(=O)CCO)cc2N2CCC3(CC2)CC3)nc1OCCC(F)(F)F [Compound 293]
5 | ≤ 100 | COc1ccc(NC(=O)c2cnc(NS(=O)(=O)CCO)cc2N2CCC3(CC2)CC3)nc1N1CCC2(CC2)C1 [Compound 294]
6 | ≤ 100 | COc1ccc(NC(=O)c2cnc(NS(=O)(=O)CCO)cc2N2CCC3(CC2)CC3)nc1OC1CCC1 [Compound 295]
7 | ≤ 100 | COc1ccc(NC(=O)c2cnc(NS(=O)(=O)CCO)cc2N2CCC3(CC2)CC3)nc1N1CCC(C)(F)C1 (stereo not drawn) [Compound 296]
8 | ≤ 100 | COc1ccc(NC(=O)c2cnc(NS(=O)(=O)CCO)cc2N2CCC3(CC2)CC3)nc1N1CCC(F)CC1 [Compound 297]
9 | ≤ 100 | COc1ccc(NC(=O)c2cnc(NS(=O)(=O)CCO)cc2N2CCC3(CC2)CC3)nc1N1CC2CC2C1 (stereo not drawn) [Compound 298]
10 | ≤ 100 | COc1ccc(NC(=O)c2cnc(NS(=O)(=O)CCO)cc2N2CCC3(CC2)CC3)nc1NC(C)(C)CO [Compound 299]
11 | ≤ 100 | COc1ccc(NC(=O)c2cnc(NS(=O)(=O)CCO)cc2N2CCC3(CC2)CC3)nc1N1CCOCC1 [Compound 300]
12 | ≤ 100 | COc1ccc(NC(=O)c2cnc(NS(=O)(=O)[C@@H](C)CO)cc2N2CCC3(CC2)CC3)nc1N1CCC(F)(F)CC1 [Compound 301]
13 | ≤ 100 | COc1ccc(NC(=O)c2cnc(NS(=O)(=O)[C@H](C)CO)cc2N2CCC3(CC2)CC3)nc1N1CCC(F)(F)CC1 [Compound 302]
14 | ≤ 100 | COc1ccc(NC(=O)c2cnc(NS(=O)(=O)[C@@H](C)CO)cc2N2CCC3(CC2)CC3)nc1N1CCO[C@H](C)C1 [Compound 303]
15 | ≤ 100 | COc1ccc(NC(=O)c2cnc(NS(=O)(=O)[C@H](C)CO)cc2N2CCC3(CC2)CC3)nc1N1CCO[C@H](C)C1 [Compound 304]
16 | ≤ 100 | COc1ccc(NC(=O)c2cnc(S(=O)(=O)NCCO)cc2N2CCC3(CC2)CC3)nc1N1CCO[C@H](C)C1 [Compound 306]
17 | ≤ 100 | COc1ccc(NC(=O)c2cnc(S(=O)(=O)NCCO)cc2N2CCC3(CC2)CC3)nc1N1CCO[C@@H](C)C1 [Compound 307]
18 | ≤ 100 | COc1ccc(NC(=O)c2cnc(S(=O)(=O)NCCO)cc2N2CCC3(CC2)CC3)nc1N1CC(F)(F)C1 [Compound 308]
19 | ≤ 100 | COc1ccc(NC(=O)c2cnc(S(=O)(=O)NCCO)cc2N2CCC3(CC2)CC3)nc1OCCC(F)(F)F [Compound 309]
20 | ≤ 100 | COc1ccc(NC(=O)c2cnc(S(=O)(=O)NCCO)cc2N2CCC3(CC2)CC3)nc1N1CCC2(CC2)C1 [Compound 310]
21 | ≤ 100 | COc1ccc(NC(=O)c2cnc(S(=O)(=O)NCCO)cc2N2CCC3(CC2)CC3)nc1OC1CCC1 [Compound 311]
22 | ≤ 100 | COc1ccc(NC(=O)c2cnc(S(=O)(=O)NCCO)cc2N2CCC3(CC2)CC3)nc1N1CCC(C)(F)C1 (stereo not drawn) [Compound 312]

Row | IC50 [nM] | Compound
23 | ≤ 100 | COc1ccc(NC(=O)c2cnc(S(=O)(=O)NCCO)cc2N2CCC3(CC2)CC3)nc1N1CCC(F)CC1 [Compound 313]
24 | ≤ 100 | COc1ccc(NC(=O)c2cnc(S(=O)(=O)NCCO)cc2N2CCC3(CC2)CC3)nc1N1CC2CC2C1 (stereo not drawn) [Compound 314]
25 | ≤ 100 | COc1ccc(NC(=O)c2cnc(S(=O)(=O)NCCO)cc2N2CCC3(CC2)CC3)nc1NC(C)(C)CO [Compound 315]
26 | ≤ 100 | COc1ccc(NC(=O)c2cnc(S(=O)(=O)NCCO)cc2N2CCC3(CC2)CC3)nc1N1CCOCC1 [Compound 316]
27 | ≤ 100 | COc1ccc(NC(=O)c2cnc(S(=O)(=O)N[C@@H](C)CO)cc2N2CCC3(CC2)CC3)nc1N1CCC(F)(F)CC1 [Compound 317]
28 | ≤ 100 | COc1ccc(NC(=O)c2cnc(S(=O)(=O)N[C@H](C)CO)cc2N2CCC3(CC2)CC3)nc1N1CCC(F)(F)CC1 [Compound 318]
29 | ≤ 100 | COc1ccc(NC(=O)c2cnc(S(=O)(=O)N[C@@H](C)CO)cc2N2CCC3(CC2)CC3)nc1N1CCO[C@H](C)C1 [Compound 319]
30 | ≤ 100 | COc1ccc(NC(=O)c2cnc(S(=O)(=O)N[C@H](C)CO)cc2N2CCC3(CC2)CC3)nc1N1CCO[C@H](C)C1 [Compound 320]
31 | ≤ 100 | COc1ccc(C(=O)Nc2ccc(NS(=O)(=O)CCO)cc2N2CCC3(CC2)CC3)nc1N1CCO[C@H](C)C1 [Compound 322]
32 | ≤ 100 | COc1ccc(C(=O)Nc2ccc(NS(=O)(=O)CCO)cc2N2CCC3(CC2)CC3)nc1N1CCO[C@@H](C)C1 [Compound 323]
33 | ≤ 100 | COc1ccc(C(=O)Nc2ccc(NS(=O)(=O)CCO)cc2N2CCC3(CC2)CC3)nc1N1CC(F)(F)C1 [Compound 324]
34 | ≤ 100 | COc1ccc(C(=O)Nc2ccc(NS(=O)(=O)CCO)cc2N2CCC3(CC2)CC3)nc1OCCC(F)(F)F [Compound 325]
35 | ≤ 100 | COc1ccc(C(=O)Nc2ccc(NS(=O)(=O)CCO)cc2N2CCC3(CC2)CC3)nc1N1CCC2(CC2)C1 [Compound 326]
36 | ≤ 100 | COc1ccc(C(=O)Nc2ccc(NS(=O)(=O)CCO)cc2N2CCC3(CC2)CC3)nc1OC1CCC1 [Compound 327]
37 | ≤ 100 | COc1ccc(C(=O)Nc2ccc(NS(=O)(=O)CCO)cc2N2CCC3(CC2)CC3)nc1N1CCC(C)(F)C1 (stereo not drawn) [Compound 328]
38 | ≤ 100 | COc1ccc(C(=O)Nc2ccc(NS(=O)(=O)CCO)cc2N2CCC3(CC2)CC3)nc1N1CCC(F)CC1 [Compound 329]
39 | ≤ 100 | COc1ccc(C(=O)Nc2ccc(NS(=O)(=O)CCO)cc2N2CCC3(CC2)CC3)nc1N1CC2CC2C1 (stereo not drawn) [Compound 330]
40 | ≤ 100 | COc1ccc(C(=O)Nc2ccc(NS(=O)(=O)CCO)cc2N2CCC3(CC2)CC3)nc1NC(C)(C)CO [Compound 331]
41 | ≤ 100 | COc1ccc(C(=O)Nc2ccc(NS(=O)(=O)CCO)cc2N2CCC3(CC2)CC3)nc1N1CCOCC1 [Compound 332]
42 | ≤ 100 | COc1ccc(C(=O)Nc2ccc(NS(=O)(=O)[C@@H](C)CO)cc2N2CCC3(CC2)CC3)nc1N1CCC(F)(F)CC1 [Compound 333]
43 | ≤ 100 | COc1ccc(C(=O)Nc2ccc(NS(=O)(=O)[C@H](C)CO)cc2N2CCC3(CC2)CC3)nc1N1CCC(F)(F)CC1 [Compound 334]
44 | ≤ 100 | COc1ccc(C(=O)Nc2ccc(NS(=O)(=O)[C@@H](C)CO)cc2N2CCC3(CC2)CC3)nc1N1CCO[C@H](C)C1 [Compound 335]

Row | IC50 [nM] | Compound
45 | ≤ 100 | COc1ccc(C(=O)Nc2ccc(NS(=O)(=O)[C@H](C)CO)cc2N2CCC3(CC2)CC3)nc1N1CCO[C@H](C)C1 [Compound 336]
46 | ≤ 100 | COc1ccc(C(=O)Nc2ccc(S(=O)(=O)NCCO)cc2N2CCC3(CC2)CC3)nc1N1CCO[C@H](C)C1 [Compound 338]
47 | ≤ 100 | COc1ccc(C(=O)Nc2ccc(S(=O)(=O)NCCO)cc2N2CCC3(CC2)CC3)nc1N1CCO[C@@H](C)C1 [Compound 339]
48 | ≤ 100 | COc1ccc(C(=O)Nc2ccc(S(=O)(=O)NCCO)cc2N2CCC3(CC2)CC3)nc1N1CC(F)(F)C1 [Compound 340]
49 | ≤ 100 | COc1ccc(C(=O)Nc2ccc(S(=O)(=O)NCCO)cc2N2CCC3(CC2)CC3)nc1OCCC(F)(F)F [Compound 341]
50 | ≤ 100 | COc1ccc(C(=O)Nc2ccc(S(=O)(=O)NCCO)cc2N2CCC3(CC2)CC3)nc1N1CCC2(CC2)C1 [Compound 342]
51 | ≤ 100 | COc1ccc(C(=O)Nc2ccc(S(=O)(=O)NCCO)cc2N2CCC3(CC2)CC3)nc1OC1CCC1 [Compound 343]
52 | ≤ 100 | COc1ccc(C(=O)Nc2ccc(S(=O)(=O)NCCO)cc2N2CCC3(CC2)CC3)nc1N1CCC(C)(F)C1 (stereo not drawn) [Compound 344]
53 | ≤ 100 | COc1ccc(C(=O)Nc2ccc(S(=O)(=O)NCCO)cc2N2CCC3(CC2)CC3)nc1N1CCC(F)CC1 [Compound 345]
54 | ≤ 100 | COc1ccc(C(=O)Nc2ccc(S(=O)(=O)NCCO)cc2N2CCC3(CC2)CC3)nc1N1CC2CC2C1 (stereo not drawn) [Compound 346]
55 | ≤ 100 | COc1ccc(C(=O)Nc2ccc(S(=O)(=O)NCCO)cc2N2CCC3(CC2)CC3)nc1NC(C)(C)CO [Compound 347]
56 | ≤ 100 | COc1ccc(C(=O)Nc2ccc(S(=O)(=O)NCCO)cc2N2CCC3(CC2)CC3)nc1N1CCOCC1 [Compound 348]
57 | ≤ 100 | COc1ccc(C(=O)Nc2ccc(S(=O)(=O)N[C@@H](C)CO)cc2N2CCC3(CC2)CC3)nc1N1CCC(F)(F)CC1 [Compound 349]
58 | ≤ 100 | COc1ccc(C(=O)Nc2ccc(S(=O)(=O)N[C@H](C)CO)cc2N2CCC3(CC2)CC3)nc1N1CCC(F)(F)CC1 [Compound 350]
59 | ≤ 100 | COc1ccc(C(=O)Nc2ccc(S(=O)(=O)N[C@@H](C)CO)cc2N2CCC3(CC2)CC3)nc1N1CCO[C@H](C)C1 [Compound 351]
60 | ≤ 100 | COc1ccc(C(=O)Nc2ccc(S(=O)(=O)N[C@H](C)CO)cc2N2CCC3(CC2)CC3)nc1N1CCO[C@H](C)C1 [Compound 352]
61 | ≤ 100 | COc1ccc(C(=O)Nc2cnc(NS(=O)(=O)CCO)cc2N2CCC3(CC2)CC3)nc1N1CCO[C@H](C)C1 [Compound 354]
62 | ≤ 100 | COc1ccc(C(=O)Nc2cnc(NS(=O)(=O)CCO)cc2N2CCC3(CC2)CC3)nc1N1CCO[C@@H](C)C1 [Compound 355]
63 | ≤ 100 | COc1ccc(C(=O)Nc2cnc(NS(=O)(=O)CCO)cc2N2CCC3(CC2)CC3)nc1N1CC(F)(F)C1 [Compound 356]
64 | ≤ 100 | COc1ccc(C(=O)Nc2cnc(NS(=O)(=O)CCO)cc2N2CCC3(CC2)CC3)nc1OCCC(F)(F)F [Compound 357]
65 | ≤ 100 | COc1ccc(C(=O)Nc2cnc(NS(=O)(=O)CCO)cc2N2CCC3(CC2)CC3)nc1N1CCC2(CC2)C1 [Compound 358]
66 | ≤ 100 | COc1ccc(C(=O)Nc2cnc(NS(=O)(=O)CCO)cc2N2CCC3(CC2)CC3)nc1OC1CCC1 [Compound 359]
